In patent US20250161419A1, “SERPIN PEPTIDES AND METHODS OF USING THE SAME” (SERPIN PHARMA, LLC, priority 2022, published 2025):

Tests used:
NFκB [1] = assay: NFκB reporter assay stimulated with LPS (THP1-XBlue-MD2-GD14 reporter cells, SEAP read-out); format: cell-based; conditions: peptide 50 μg/ml before LPS 5 ng/ml, overnight
Protocol: The reporter cells (THP1-XBlue-MD2-GD14 cells) were treated with each peptide (50 μg/ml) before being insulted with LIPS (5 ng/ml) and incubated overnight. The NFκB inducible Secreted Embryonic Alkaline Phosphatase (SEAP) was measured in the supernatant and read for absorbance.

NFκB [2] = assay: as above; format: cell-based; conditions: without LPS
phospho-ERK1/2 = assay: Cell signaling analysis in PC12 cells, immunoblot of phospho-ERK1/2; format: cell-based, rat; conditions: SP163M 24 or 240 nM, NGF 0.36 nM, RAP 150 nM pretreatment 15 min
Protocol: Cell signaling analysis: Rat PC12 cells were purchased from ATCC (CRL-1721). PC12 cells were maintained in high glucose DMEM (Gibco, USA) containing 10% heat-inactivated FBS (Gibco, USA), 5% HyClone heat-inactivated horse serum (Cytiva, USA), penicillin (100 units/ml) and streptomycin ([…]) in 6-well plates that were pre-coated with 0.01 mg/ml type IV collagen (Sigma-Aldrich, St. Louis, MO, USA). Cells were transferred to serum-free medium (SFM) 4 h prior to adding effectors, and then treated with SP163M (2.4, 24 or 240 nM); EI-tPA (12 nM), NGF (0.36 nM), or vehicle (PBS) for 10 min. In some cases, cells were pre-incubated with the competitive antagonist of LRP1, GST-RAP (150 nM) for 15 min or electroporated using the Rat Neuron Nucleofector Amaxa Kit (Lonza Biosciences) and incubated with siRNA to silence LRP1 expression (siLRP1; M-094191-01-0010, Dharmacon) for 48 h. Control cells were transfected with non-targeting control (NTC) siRNA (NTC; D-001810-10-05, Dharmacon). Cells were rinsed with ice-cold PBS and proteins were extracted in RIPA buffer (20 mM sodium phosphate, 150 mM NaCl, pH 7.4, 1% Triton X-100, 0.5% sodium deoxycholate, 0.1% SDS) supplemented with protease and phosphatase inhibitors (Roche Diagnostics, USA). After 30 min on ice, lysates were centrifuged at 15000×g for 5 min, supernatant collected and stored at −20° C. Equal amounts of protein from cell lysates (20 μg), as determined by BCA Protein Assay (ThermoFisher Scientific, Waltham, MA, USA), were subjected to 10% SDS-PAGE and electro-transferred to nitrocellulose membranes. The membranes were blocked with 5% nonfat dried milk and then incubated with primary anti-phospho-AKT (Cell Signaling Technology, Danvers, MA, USA; cat #9271S; 1:1000), anti-phospho-ERK1/2 (Cell Signaling Technology, Danvers, MA, USA; cat #9101S; 1:1000), anti-LRP1 (Cell Signaling Technology, Danvers, MA, USA; cat #64099S; 1:1000) or anti total-ERK1/2 (Cell Signaling Technology, Danvers, MA, USA; cat #91012S; 1:1000). Immunoblots were developed using Radiance, Radiance Q, and Radiance Plus chemiluminescent substrates and imaged using a BioRad ChemiDoc Imaging System (Bio-Rad, Hercules, CA, USA).

[3] = Peptide stability as stated in Example 1 (no method described); format: physicochemical; conditions: stated as explanation of activity; no test described
phospho-STAT6 = assay: IL-13 stimulated STAT6 phosphorylation in esophageal EPC2 cells (western blot); format: cell-based, human; conditions: 30 minutes post IL-13 induction
Protocol: Esophageal EPC2 cells were treated with vehicle (ddw), A1AT or SP163M. Cells were collected at time-points indicated and western blot analysis of phospho-specific STAT6 was analyzed. […] Using CRISPER/CAS9 technology, an LRP1 knockout esophageal EPC2 cell line was created.

Row | Substance | NFκB activity (NFκB inducible SEAP in supernatant) (NFκB [1]) | further results
1 | SIPPEVKFNKPFVFLMIEQNTKSPLFMGKVVNP (SIPPEVKFNKPFVFLMIEQNTKSPLFMGKVVNP; SP16 peptide core sequence including the LRP1 binding site; listed as Homo sapiens) [SP8, reference compound] | neither the scrambled core control peptide nor the AAT 0-36 fragment decreased the NFκB activity | NFkB induction by the peptide itself (NFκB [2]): showed NFkB inducible properties without the need for LPS
2 | VRFNRPFLMII [SP28] | lack of function | 
3 | FPKMVPQFNTELKIFPEVNIK (FPKMVPQFNTELKIFPEVNIK) [SP34, reference compound] | neither the scrambled core control peptide nor the AAT 0-36 fragment decreased the NFκB activity | 
4 | R R R V R F N R P F L M I I R R R (RRRVRFNRPFLMIIRRR) [SP29] | heightened activity | 
5 | NGF: NGF-β purchased from Sigma, cell signaling control [reference compound] |  | activation of phospho-ERK1/2 after 10 min, with or without RAP (phospho-ERK1/2): activated ERK1/2
6 | R R R V K F N K P F V F L M R R R (RRRVKFNKPFVFLMRRR; SP16 peptide core sequence including the LRP1 binding site) [SP22] | NFκB activity was significantly reduced | 
7 | RRRVKFNKPFVFLMIEQNTKRRR (RRRVKFNKPFVFLMIEQNTKRRR; SP16 peptide core sequence including the LRP1 binding site) [SP21] | NFkB inhibition increased as well relative to SP16 | peptide stability [3]: stability increased
8 | VKFNKPFVFLM (SP16 peptide core sequence including the LRP1 binding site; listed as Homo sapiens) [SP20] | did not have an inhibitory effect | peptide stability [3]: unstable
9 | R R R L R F N R P F L V V I R R R (RRRLRFNRPFLVVIRRR) [SP26] | heightened activity | 
10 | A1AT: alpha-1 antitrypsin, the prototypical SERPIN [Peptide A1AT] |  | STAT6 phosphorylation (phospho-STAT6): STAT6 was phosphorylated in vehicle and A1AT treated cells
11 | V R F N R P F L (VRFNRPFL) [SP31] | anti-inflammatory activity of the peptide was lost | 
12 | R R R V R F N R P F L R R R (RRRVRFNRPFLRRR) [SP32] | could not be restored with the poly arginine flanks | 
13 | LRFNRPFLVVI [SP24] | lack of function | 
